Experimental data as given in ChEMBL document CHEMBL5154887, “Novel CRBN-Recruiting Proteolysis-Targeting Chimeras as Degraders of Stimulator of Interferon Genes with In Vivo Anti-Inflammatory Efficacy” (J Med Chem, 2022).
Calls of active or inactive are those of the source. The rule behind the calls is not given here.

Tests used:
[1] = Tmax in Sprague-Dawley rat at 2 mg/kg, iv measured upto 48 hrs by UPLC-triple quadrupole MS analysis; assay type: ADME, organism-based; settings: in vivo
[2] = MRT (0 to t) in Sprague-Dawley rat at 20 mg/kg, po measured upto 48 hrs by UPLC-triple quadrupole MS analysis; assay type: ADME, organism-based; settings: in vivo
Mus musculus [3] = assay: Antiinflammatory activity against cisplatin-induced acute kidney injury in C57BL/6J mouse model assessed as reduction in kidney weight at 30 mg/kg, ip pretreated for 1 hr followed by cisplatin administration and measured after 72 hrs relative to control; assay type: functional; parameters: scale not given: the % may be the effect or the level left; settings: time 73 hrs
[4] = Toxicity in cisplatin-induced acute kidney injury in C57BL/6J mouse model assessed as illegible tubular structure in kidney at 30 to 60 mg/kg, ip pretreated for 1 hr followed by cisplatin administration and measured after 72 hrs by H and E staining based analysis; assay type: organism-based; settings: in vivo, 73 h, dose 30-60 mg/kg
[5] = Half life in Sprague-Dawley rat at 2 mg/kg, iv measured upto 48 hrs by UPLC-triple quadrupole MS analysis; assay type: ADME, organism-based; settings: in vivo
[6] = Apparent volume of distribution in Sprague-Dawley rat at 20 mg/kg, po measured upto 48 hrs by UPLC-triple quadrupole MS analysis; assay type: ADME, organism-based; settings: in vivo
THP-1 [7] = assay: Inhibition of cGAS-STING signalling pathway in human THP-1 cells assessed as downregulation of cGAMP-triggered CXCL10 expression preincubated for 2 hrs followed by cGAMP stimulation and measured after 24 hrs by ELISA; assay type: cell-based; settings: dose 2.5-20 µM, time 26.0 hrs, DDE = dose-dependent effect
Mus musculus [8] = assay: (§1) In vivo inhibition of STING signalling pathway in ip dosed cisplatin-induced acute kidney injury in C57BL/6J mouse model assessed as reduction in CXCL10 expression in blood of mouse eyeballs pretreated for 1 hr followed by cisplatin administration and measured after 72 hrs by ELISA; assay type: functional, organism-based; settings: time 73.0 hrs, DDE = dose-dependent effect
[9] = Toxicity in C57BL/6J mouse assessed as body weight loss at 30 mg/kg, ip measured after 4 days relative to control; assay type: organism-based; settings: in vivo, 96 h, time 4 day
[10] = Toxicity in cisplatin-induced acute kidney injury in C57BL/6J mouse model assessed as morphological abnormalities in heart at 30 to 60 mg/kg, ip pretreated for 1 hr followed by cisplatin administration and measured after 72 hrs by H and E staining based analysis; assay type: organism-based; settings: in vivo, 73 h, dose 30-60 mg/kg
[11] = Toxicity in C57BL/6J mouse model of cisplatin-induced acute kidney injury assessed as survival rate at 30 mg/kg, ip pretreated for 1 hr followed by cisplatin administration and measured after 72 hrs relative to control; assay type: organism-based; settings: in vivo, 73 h
[12] = Cytotoxicity against HEK293-A cells assessed as cell growth inhibition at 30 uM by MTT assay relative to control; assay type: toxicity, cell-based; settings: human
THP-1 [13] = assay: Inhibition of cGAS-STING signalling pathway in human THP-1 cells assessed as downregulation of cGAMP-triggered IL-6 expression preincubated for 2 hrs followed by cGAMP stimulation and measured after 24 hrs by ELISA; assay type: cell-based; settings: dose 2.5-20 µM, time 26.0 hrs, DDE = dose-dependent effect
[14] = MRT (0 to infinity) in Sprague-Dawley rat at 20 mg/kg, po measured upto 48 hrs by UPLC-triple quadrupole MS analysis; assay type: ADME, organism-based; settings: in vivo
[15] = target: T1, Protein cereblon/Stimulator of interferon genes protein (Homo sapiens, UniProt Q96SW2+Q86WV6); assay: Protac activity at CRBN/STING in human THP-1 cells assessed as increase in STING degradation incubated for 48 hrs by Western blot analysis; assay type: cell-based
Target sequence in this assay (Q96SW2 whole entry): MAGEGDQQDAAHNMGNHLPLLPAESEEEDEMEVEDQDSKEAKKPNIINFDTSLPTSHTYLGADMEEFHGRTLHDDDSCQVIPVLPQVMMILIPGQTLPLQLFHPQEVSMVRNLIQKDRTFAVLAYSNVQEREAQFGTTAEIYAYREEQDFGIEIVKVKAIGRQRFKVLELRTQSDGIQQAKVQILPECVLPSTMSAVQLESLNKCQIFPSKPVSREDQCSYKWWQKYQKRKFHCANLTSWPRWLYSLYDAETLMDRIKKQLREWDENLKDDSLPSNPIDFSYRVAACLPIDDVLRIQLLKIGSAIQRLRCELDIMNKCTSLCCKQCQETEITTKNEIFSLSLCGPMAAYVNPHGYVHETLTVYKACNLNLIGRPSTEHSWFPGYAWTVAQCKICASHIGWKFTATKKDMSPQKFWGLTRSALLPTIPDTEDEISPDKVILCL
Target sequence in this assay (Q86WV6 whole entry): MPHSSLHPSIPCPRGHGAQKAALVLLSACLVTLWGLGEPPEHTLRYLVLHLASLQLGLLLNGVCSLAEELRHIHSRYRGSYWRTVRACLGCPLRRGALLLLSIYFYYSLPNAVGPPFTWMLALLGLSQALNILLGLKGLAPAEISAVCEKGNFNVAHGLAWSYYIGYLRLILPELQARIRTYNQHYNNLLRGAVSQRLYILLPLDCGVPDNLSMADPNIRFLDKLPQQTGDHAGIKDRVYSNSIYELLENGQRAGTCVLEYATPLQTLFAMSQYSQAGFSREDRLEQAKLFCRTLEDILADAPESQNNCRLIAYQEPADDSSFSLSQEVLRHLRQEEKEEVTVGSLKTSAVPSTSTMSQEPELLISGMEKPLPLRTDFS

[16] = Cytotoxicity against HEK293-A cells assessed as reduction in cell viability at <10 uM by MTT assay; assay type: toxicity, cell-based; settings: human
[17] = Renal toxicity in C57BL/6J mouse assessed as reduction in BUN level at 30 mg/kg, ip (Rvb= 8.9 mmol/L); assay type: organism-based; settings: in vivo
[18] = Tmax in Sprague-Dawley rat at 20 mg/kg, po measured upto 48 hrs by UPLC-triple quadrupole MS analysis; assay type: ADME, organism-based; settings: in vivo
[19] = Toxicity in cisplatin-induced acute kidney injury in C57BL/6J mouse model assessed as vacuole like changes in kidney at 30 to 60 mg/kg, ip pretreated for 1 hr followed by cisplatin administration and measured after 72 hrs by H and E staining based analysis; assay type: organism-based; settings: in vivo, 73 h, dose 30-60 mg/kg
[20] = Cytotoxicity against mouse C17.2 cells assessed as reduction in cell viability at <10 uM by MTT assay; assay type: toxicity, cell-based; settings: c17.2, 10 µM
[21] = MRT (0 to t) in Sprague-Dawley rat at 2 mg/kg, iv measured upto 48 hrs by UPLC-triple quadrupole MS analysis; assay type: ADME, organism-based; settings: in vivo
Mus musculus [22] = assay: Antiinflammatory activity against cisplatin-induced acute kidney injury in C57BL/6J mouse model assessed as reduction in kidney weight at 60 mg/kg, ip pretreated for 1 hr followed by cisplatin administration and measured after 72 hrs relative to control; assay type: functional; parameters: scale not given: the % may be the effect or the level left; settings: time 73 hrs
[23] = Cmax in Sprague-Dawley rat at 2 mg/kg, iv measured upto 48 hrs by UPLC-triple quadrupole MS analysis; assay type: ADME, organism-based; parameters: dose 2 mg/kg, time < 48 hrs, route iv; settings: in vivo
[24] = Toxicity in C57BL/6J mouse model of cisplatin-induced acute kidney injury assessed as survival rate at 60 mg/kg, ip pretreated for 1 hr followed by cisplatin administration and measured after 72 hrs relative to control; assay type: organism-based; settings: in vivo, 73 h
Mus musculus [25] = assay: Renal protective activity against cisplatin-induced acute kidney injury in C57BL/6J mouse model assessed as reduction in abnormal signal intensities of T2 at 60 mg/kg, ip by NMR based analysis; assay type: functional, organism-based
[26] = target: Stimulator of interferon genes protein (Homo sapiens) (UniProt Q86WV6); assay: Inhibition of STING pathway in human THP-1 cells assessed as inhibition of cGAMP-triggered pTBK1 expression preincubated for 2 hrs followed by cGAMP stimulation and measured after 24 hrs by Western blot analysis; assay type: cell-based; settings: dose 0-20 µM, time 26.0 hrs, DDE = dose-dependent effect
Sequence of Stimulator of interferon genes protein (Homo sapiens) (Q86WV6 whole entry): as above

[27] = target: T1, Protein cereblon/Stimulator of interferon genes protein; assay: Protac activity at CRBN/STING in human THP-1 cells assessed as increase in STING degradation at 10 uM measured after 4 to 48 hrs by Western blot analysis; assay type: cell-based; settings: time 4-48 hrs, TDE = time-dependent effect
Target sequence in this assay (Q86WV6 whole entry, looked up): as the sequence (Q86WV6 whole entry) above
Target sequence in this assay (Q96SW2 whole entry, looked up): as the sequence (Q96SW2 whole entry) above

[28] = Toxicity in cisplatin-induced acute kidney injury in C57BL/6J mouse model assessed as morphological abnormalities in liver at 30 to 60 mg/kg, ip pretreated for 1 hr followed by cisplatin administration and measured after 72 hrs by H and E staining based analysis; assay type: organism-based; settings: in vivo, 73 h, dose 30-60 mg/kg
[29] = as §1, with “in” for “in ip dosed”, “STING protein” for “CXCL10”, “kidney at 30 mg/kg, ip” for “blood of mouse eyeballs”, “Western blot analysis (Rvb= 375%)” for “ELISA”; assay type: functional; parameters: scale not given: the % may be the effect or the level left; settings: time 73 hrs
[30] = target: T1, Protein cereblon/Stimulator of interferon genes protein; assay: Protac activity at CRBN/STING in human THP-1 cells assessed as increase in STING degradation at 10 uM pretreated with lysosome inhibitor BAF for 1 hr followed by compound addition and measured after 48 hrs by Western blot analysis; assay type: cell-based
Target sequence in this assay (Q86WV6 whole entry, looked up): as the sequence (Q86WV6 whole entry) above
Target sequence in this assay (Q96SW2 whole entry, looked up): as the sequence (Q96SW2 whole entry) above

O=C(/C=C/C(=O)Nc1ccc(NC(=O)c2ccc([N+](=O)[O-])o2)cc1)NCCCCCCNc1cccc2c1C(=O)N(C1CCC(=O)NC1=O)C2=O (stereo not given)
Tmax [1]: 4.98 min | MRT last at 48 h [2]: 7.6 h | Activity (Mus musculus [3]): 14% | Activity [4]: Non-Toxic | half-life [5]: 232 min | Vz [6]: 4480.43 L/kg | Activity (THP-1 [7]): Dde | inhibition (Mus musculus [8]): Dde | Activity [9]: 13% | Activity [10]: Non-Toxic | Survival [11]: 89% | inhibition at 30 µM [12]: 11% | Activity (THP-1 [13]): Dde | MRT inf [14]: 11.7 h | DC50 [15]: 3.2 µM | Activity [16]: Non-Toxic | Activity [17]: 27.2 mmol/L | Tmax [18]: 3.71 h | Activity [19]: Non-Toxic | Activity [20]: Non-Toxic | MRT last at 48 h [21]: 1.74 h | Activity (Mus musculus [22]): 26% | Cmax [23]: 318 ng/mL | Survival [24]: 100% | Activity (Mus musculus [25]): Active | inhibition [26]: Dde | Activity [27]: Tde | Activity [28]: Non-Toxic | Activity [29]: 150% | Activity [30]: Active
